PubChem BioAssay (NCI)
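96-well plates; 48 h exposure; 5 concentrations. Endpoints by linear interpolation between flanking doses. Not reached: highest tested concentration assigned. TGI: concentration producing complete growth inhibition.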

How the values were obtained:
Assay in all cases: NCI-60 cell line screen, 48 h
[1] = test system: HCC-2998 colon
[2] = test system: 786-0 renal
[3] = test system: MCF7 breast
[4] = test system: HCT-116 colon
[5] = test system: SN12C renal
[6] = test system: K-562 leukemia
[7] = test system: DU-145 prostate
[8] = test system: SF-295 CNS
[9] = test system: HCT-15 colon
[10] = test system: SK-MEL-2 melanoma
[11] = test system: OVCAR-3 ovarian

CC(C)(C)N(Cc1ccc2c(c1)OCO2)C(=O)/C=C\Sc1ccccc1
TGI [1]: > 100 µM
TGI [2]: > 100 µM
TGI [3]: > 100 µM
TGI [4]: > 100 µM
TGI [5]: > 100 µM
TGI [6]: > 100 µM
TGI [7]: > 100 µM
TGI [8]: > 100 µM
TGI [9]: > 100 µM
TGI [10]: > 100 µM
TGI [11]: > 100 µM

O=C1C(CN2CCOCC2)CCCC1CN1CCOCC1 (centres undefined)
TGI [1]: 10.3 µM
TGI [2]: 2.61 µM
TGI [3]: 1.57 µM
TGI [4]: 2.83 µM
TGI [5]: 7.71 µM
TGI [6]: 6.84 µM
TGI [7]: 31.1 µM
TGI [8]: 50.5 µM
TGI [9]: 3.2 µM
TGI [10]: 16.3 µM
TGI [11]: 8.21 µM

CNc1ncc(-c2nnnn2-c2ccccc2)c(CN(C)C)n1
TGI [1]: > 100 µM
TGI [2]: > 100 µM
TGI [3]: > 100 µM
TGI [4]: > 100 µM
TGI [5]: > 100 µM
TGI [6]: > 100 µM
TGI [7]: > 100 µM
TGI [8]: > 100 µM
TGI [9]: > 100 µM
TGI [10]: > 100 µM
TGI [11]: > 100 µM

S=C(Nc1ccc2cn[nH]c2c1)Nc1ccc2cn[nH]c2c1
TGI [1]: > 100 µM
TGI [2]: > 100 µM
TGI [3]: > 100 µM
TGI [4]: > 100 µM
TGI [5]: > 100 µM
TGI [6]: > 100 µM
TGI [7]: > 100 µM
TGI [8]: > 100 µM
TGI [9]: > 100 µM
TGI [10]: > 100 µM
TGI [11]: > 100 µM

COc1ccc(C(C2=C(O)COC2=O)c2cc3c(cc2O)OCO3)cc1OC (centres undefined)
TGI [1]: > 100 µM
TGI [2]: > 100 µM
TGI [3]: > 100 µM
TGI [4]: > 100 µM
TGI [5]: > 100 µM
TGI [6]: > 100 µM
TGI [7]: > 100 µM
TGI [8]: > 100 µM
TGI [9]: > 100 µM
TGI [10]: > 100 µM
TGI [11]: > 100 µM

Cc1ccc2c(c1)C(=O)C(C1OC(=O)c3ccccc31)C2 (centres undefined)
TGI [1]: > 100 µM
TGI [2]: > 100 µM
TGI [3]: > 100 µM
TGI [4]: > 100 µM
TGI [5]: > 100 µM
TGI [6]: > 100 µM
TGI [7]: > 100 µM
TGI [8]: > 100 µM
TGI [9]: > 100 µM
TGI [10]: > 100 µM
TGI [11]: > 100 µM

CC(=O)Oc1ccc(/C=C/C(=O)O[C@@H](C(=O)O)[C@@H](OC(=O)/C=C/c2ccc(OC(C)=O)c(OC(C)=O)c2)C(=O)O)cc1OC(C)=O
TGI [1]: > 100 µM
TGI [2]: > 100 µM
TGI [3]: > 100 µM
TGI [4]: > 100 µM
TGI [5]: > 100 µM
TGI [6]: > 100 µM
TGI [7]: > 100 µM
TGI [8]: > 100 µM
TGI [9]: > 100 µM
TGI [10]: > 100 µM
TGI [11]: > 100 µM

CCOc1cc(NC(C)=O)ccc1C(=O)NN1C(=O)CSC1c1ccccc1 (centres undefined)
TGI [1]: > 100 µM
TGI [2]: > 100 µM
TGI [3]: > 100 µM
TGI [4]: > 100 µM
TGI [5]: > 100 µM
TGI [6]: > 100 µM
TGI [7]: > 100 µM
TGI [8]: > 100 µM
TGI [9]: > 100 µM
TGI [10]: > 100 µM
TGI [11]: > 100 µM

C[Si](C)(c1ccccc1)[C@H]1CCCC=C1CCNC1c2ccccc2CCc2ccccc21
TGI [1]: > 100 µM
TGI [2]: > 100 µM
TGI [3]: > 100 µM
TGI [4]: > 100 µM
TGI [5]: > 100 µM
TGI [6]: > 100 µM
TGI [7]: > 100 µM
TGI [8]: > 100 µM
TGI [9]: > 100 µM
TGI [10]: > 100 µM
TGI [11]: > 100 µM
